This series can be described thus: LC-MS/MS MRM quantitation of metformin-MG imidazolinone and metformin in human urine. The class given is in vivo. The method, then: An Agilent (Palo Alto, Calif.) 1260 liquid chromatograph was utilized for achieving gradient separation using an Agilent ZORBAX Hilic Plus (2.1×50 mm) column with a 1.8 μm packing size held at 30° C. throughout the separation. A 5 μL injection of urine diluted 1:200 in Milli-Q water and snap filtered ([…] eXtreme® Filter Vial 0.2 um PVDF; Thomson, Oceanside, Calif.) was used for all samples. A binary gradient consisting of 15 mM ammonium acetate in water (A) and acetonitrile (B) at a flow rate of 300 μL/min was used. […] After this, a linear gradient was maintained to achieve 35% B at 9 min which was held for another minute. At 10 min, another linear change was applied to get to the initial condition of 95% B at 11 min. A post-time of three min was used to re-equilibriate the column before the next analysis. The total analysis time was 14 min per sample. Mass spectrometry was performed using an Agilent 6490 triple-quadrupole mass spectrometer with an electrospray ionization (ESI) source. […] After this was determined, the mass spectrometer was operated in product ion scan mode and the most abundant product ions were selected. […] Once the product ions were determined, the collision energy (CE) and cell accelerator voltage (CAV) were optimized for each transition. […]

Regarding `CC1NC(/N=C(\N)N(C)C)=NC1=O` (centres unmarked) [IMZ, (E)-1,1-dimethyl-2-(5-methyl-4-oxo-4,5-dihydro-1H-imidazol-2-yl)guanidine], the “IMZ in urine of MF-treated T2DM patients” value (all MF-treated T2DM patients) is “detected”. For the setting “human diabetic subjects on MF treatment”, the “Levels of the MF-MG adduct detectable in urine” value was “up to 4.32 μM/specific gravity”.

(Values after patent US20190137505A1 (THE ARIZONA BOARD OF REGENTS ON BEHALF OF THE UNIVERSITY OF …, priority 2015, published 2019).)
